Test results published in the METLIN SMRT retention time set (Domingo-Almenara et al. 2019).

Assay: gradient 5% acetonitrile 3 min, to 50% in 2 min, to 85% in 15 min, held 3 min, 100 µL/min
Details: column: Zorbax Extend-C18 2.1 x 50 mm; eluents: water / acetonitrile, 0.1% formic acid
Summary of the method: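 Each retention time is based on an adduct peak selected computationally and verified by manual inspection. Measurements used HPLC–quadrupole time-of-flight mass spectrometry in positive and negative ionization mode on mixtures of ~100 pure standards. Chromatography ran on a Zorbax Extend-C18 column (2.1 × 50 mm, 1.8 μm) at 100 μL/min with water and acetonitrile, each containing 0.1% formic acid, and dead and dwell volumes of 40 μL and 900 μL.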

| SMILES | RP-LC retention time |
| --- | --- |
| CC1CCCN(C(=O)c2cn(-c3cc(-c4nc(C(C)(C)C)no4)ccn3)cn2)C1 (centres undefined) | 1040 s |
| COCCN1C(=O)[C@H]2CN(Cc3ccc(C)cc3)C[C@H]2C1=O | 616 s |
| CCCS(=O)(=O)N1CCC(OCCOc2cccnc2)CC1 | 581 s |
| CCN(CC)c1ccc(-c2noc(CN3CCC4(CC3)OCCO4)n2)cn1 | 579 s |
| Cc1nc(-c2cn(C)c3ncccc23)sc1C(=O)N1CCN(c2ccccc2)CC1 | 932 s |
| O=C(Nc1ccc(F)cc1F)N1CCc2nc[nH]c2C1 | 568 s |
| Cc1ccc(N2CCC(NC(=O)Nc3ccccc3C)C2=O)cc1 (centres undefined) | 823 s |
| CCc1cc(=O)n(CC(=O)Nc2cccc(Cl)c2)c(N2CCOCC2)n1 | 788 s |
| CC1Oc2ccc(S(=O)(=O)N3CCC(C(=O)Nc4cccc(Cl)c4)CC3)cc2NC1=O (centres undefined) | 891 s |
| CCc1cc(-c2csc(S(=O)(=O)N3CCN(c4ccc(Cl)cc4)CC3)c2)on1 | 1200 s |
| CCCCN1CCN(C(=O)c2cn(-c3cc(N4CCSCC4)ncn3)cn2)CC1 | 639 s |
| COc1ccc(CNC(=O)Cn2c(N)nc(C)cc2=O)cc1 | 603 s |
| COc1ccc(CCC(=O)N2CCCC(C)(C(=O)NCc3ccc(C)cc3)C2)cc1 (centres undefined) | 932 s |
| COc1ccc(-c2noc(C3CCCN3C(=O)c3ccc(N(C)C)cc3)n2)cc1OC (centres undefined) | 881 s |
| COc1ccc(NC(=O)c2nc(N3CCC(C)CC3)c3cnn(C)c3n2)cc1 | 966 s |
| CCn1c(=O)c(N2CCC(NC(=O)NCc3ccc(F)cc3)CC2)nc2cccnc21 | 850 s |
| COc1ccc(-c2n[nH]c3c2C(c2ccc(OC)c(OC)c2)NC3=O)cc1 (centres undefined) | 637 s |
| Cc1ccc(CNC(=O)C2(C)CCN(C(=O)Nc3ccc(C)c(F)c3)CC2)cc1 | 914 s |
| O=C(NC1CCCC1)N1c2ccccc2CC1c1nc(C2CC2)no1 (centres undefined) | 972 s |
| NCC(=O)c1cccc2ccc[n+]([O-])c12 | 678 s |
| CC(C)Oc1ccc(-c2noc(Cn3cnc4c(oc5ccccc54)c3=O)n2)cc1 | 1060 s |

| SMILES | RP-LC retention time |
| --- | --- |
| Cc1noc([C@@H]2CN(C(=O)c3ccoc3C)C[C@H]2C(N)=O)n1 | 599 s |
| O=S(=O)(Nc1cccc(-c2cn3cccnc3n2)c1)c1ccc(Br)cc1 | 769 s |
| C[C@H]1CN(C(=O)c2ccc3ccccc3n2)C[C@@H]1c1nc(-c2ccncc2)no1 | 830 s |
| Cc1cc2[nH]c(C(=O)Nc3ccc(F)cc3F)c(CN3CCOCC3)c2s1 | 710 s |
| CC(O)CNC(=O)C1CCN(c2ccc(Sc3ccc(C(C)C)cc3)nn2)CC1 (centres undefined) | 704 s |
| Cc1noc(C)c1CCC(=O)N1CCc2nn(CC#N)c(=O)n2CC1 | 630 s |
| O=C(NCc1ccc(F)cc1)N1CCCC(Cn2c(C3CC3)nc3cccnc32)C1 (centres undefined) | 669 s |
| Cc1nn(-c2ccc(Cl)cc2)c(C)c1S(=O)(=O)N1CCC(C(=O)N2CCOCC2)CC1 | 810 s |
| COc1cccc(NS(=O)(=O)c2c(C)nn(-c3ccc(-c4ccc(C)cc4)nn3)c2C)c1 | 1080 s |
| CCOC(=O)c1c(C)[nH]c(CCC(=O)NCCC(C)C)c1C | 816 s |
| CC(C)C(=O)N1CCN(c2nc(CN3CCCCC3)cs2)CC1 | 603 s |
| COCCNC(=O)Cc1c(C)n(Cc2ccccc2)c2nc(-c3ccccc3)nn2c1=O | 776 s |
| CCc1nc(N2CCc3ccccc3C2)ncc1C(=O)O | 953 s |
| Cc1cc(OCC(=O)NCc2ccc3c(c2)OCO3)nc(N2CCCCCC2)n1 | 594 s |
| CCNC(=O)C1CCCN(C(=O)Nc2ccc(NC(=O)Nc3ccc(C)cc3C)cc2)C1 (centres undefined) | 730 s |
| Cc1cc(C(=O)N2CCC3(CC2)NCc2ccccc2-n2ccnc23)nn1C | 576 s |
| CCOC(=O)c1noc2ncnc(N3CCc4ccccc4C3)c12 | 1010 s |
| Cn1nnc2cc(-c3noc(C4CC(=O)N(c5cccc(Cl)c5)C4)n3)ccc21 (centres undefined) | 864 s |
| Cc1ccc(C(C)NC(=O)c2cccc(C3CCCN(C(=O)NC(C)C)C3)c2)c(C)c1 (centres undefined) | 969 s |
| Cc1cccc(NC(=O)Cn2nc(N3CCC(C)CC3)c3ccccc3c2=O)c1 | 1160 s |

Next, values leading:

| RP-LC retention time | SMILES |
| --- | --- |
| 574 s | COc1ccc2[nH]c(=O)c(CCC(=O)NCc3ccncc3)cc2c1 |
| 768 s | Cn1cccc1C(=O)Nc1cnn(-c2ncc(N3CCSCC3)cn2)c1 |
| 777 s | CCNC(=O)c1cnn(-c2ccc(-c3nc(CC)no3)cn2)c1C |
| 776 s | O=C(Cn1cccn1)NCc1ccc(OCc2ccccc2)cc1 |
| 968 s | O=C(Nc1ccc2c(c1)OCCO2)C1CCCN(S(=O)(=O)Cc2ccc(Cl)cc2)C1 (centres undefined) |
| 1160 s | Cc1oc2ccn(Cc3ccccc3F)c(=O)c2c1C(=O)NC1CCCCC1 |
| 627 s | Cc1c(-c2cccc(NS(=O)(=O)c3ccc(Cl)cc3)c2)nc2ncccn12 |
| 667 s | NC(=O)c1ccccc1NC(=O)NC1CC(=O)N(c2ccc(Cl)cc2)C1 (centres undefined) |
| 735 s | COc1ccc(NC(=O)c2ccc(-c3cncnc3)nc2)cc1Cl |
| 579 s | CN(C)CCNC(=O)Cn1c(=O)n(-c2ccccc2)c2ncccc21 |
| 642 s | O=C(NCCCN1CCCC1)c1ccc2nc(Cc3ccccc3)oc2c1 |
| 828 s | COc1ccc(-c2noc(C3CCCN3C(=O)c3cc(OC)c(OC)c(OC)c3)n2)cc1OC (centres undefined) |
| 1420 s | O=C(CSc1ncc(-c2ccccc2)[nH]1)Nc1nc(-c2ccc(C3CCCCC3)cc2)cs1 |
| 573 s | CCC(=O)N1CCc2c(sc3ncnc(NCc4cccnc4)c23)C1 |
| 777 s | Cc1cccc(Cn2nc3c(S(=O)(=O)N4CCOCC4)cccn3c2=O)c1 |
| 562 s | CCc1cc(C(=O)N2CCN(C3CCN(C)CC3)CC2)nc2cc(-c3ccccn3)nn12 |
| 990 s | CNS(=O)(=O)c1cccnc1Nc1cc(C)cc(C)c1 |
| 1000 s | COc1cccc2sc(N3CCc4ccccc4C3)nc12 |
| 661 s | CCc1nncn1C1CCN(C(=O)Nc2ccc(F)c(Cl)c2)C1 (centres undefined) |
| 623 s | Cc1nncn1C1CN(C(=O)c2cc3ccccc3[nH]2)C1 |
| 747 s | COC(=O)c1sccc1NC(=O)C1CCN(Cc2nc(-c3ccc(OC)c(OC)c3)no2)CC1 |
| 1110 s | CCn1c(=O)oc2cc(-c3noc(-c4cccc(F)c4)n3)ccc21 |
| 561 s | Cn1c(=O)n(C)c2cc(CNc3ccc4[nH]c(=O)[nH]c4c3)ccc21 |
| 874 s | Cc1csc(-c2cc(S(=O)(=O)Nc3cc(F)ccc3F)cn2CC(=O)N2CCCC2)n1 |

| RP-LC retention time | SMILES |
| --- | --- |
| 587 s | O=C(NC1CC1)c1cc(=O)[nH]c2ccccc12 |
| 912 s | Cc1ccc(CNC(=O)C2(C)CCCN(C(=O)NCCc3ccccc3)C2)cc1 (centres undefined) |
| 612 s | COCCCNC(=O)C1CCC(=O)N(c2ccc(OC)cc2)C1c1ccc(OC)c(OC)c1 (centres undefined) |
| 617 s | Cc1cc(C)c(S(=O)(=O)N2CCCC2c2nncn2Cc2ccncc2)c(C)c1 (centres undefined) |
| 796 s | CCn1cnc2c(-c3ccccc3)cn(CC(=O)NCc3ccco3)c2c1=O |
| 866 s | O=C(NCc1csc(-c2ccccc2)n1)[C@H]1CCCN1C(=O)c1ccc(Br)cc1 |
| 999 s | CCCCN1C(=O)C(C)(C(=O)Nc2ccccc2)Oc2cccnc21 (centres undefined) |
| 732 s | COC(=O)c1ccc(CSc2nnc(CNC(=O)c3cccc([N+](=O)[O-])c3C)o2)o1 |
| 781 s | O=C(O)CCNS(=O)(=O)c1ccc(Cl)c(-c2nnc(-c3ccccc3)o2)c1 |
| 683 s | O=C(c1cc(-c2ccccc2)n[nH]1)N1C[C@H]2CNC(=O)[C@]23CCCC[C@@H]13 |
| 1040 s | O=C(NCc1ccc(C(F)(F)F)cc1)C1CCCN(c2nccnc2Oc2ccccc2)C1 (centres undefined) |
| 1040 s | CC(C)c1noc(-c2cc(=O)n(CC(=O)Nc3ccc(F)c(F)c3)c3ccccc23)n1 |
| 884 s | O=C(c1cccnc1)C1Cc2ccccc2C1=O (centres undefined) |
| 1040 s | COC(=O)c1ccc2c(=O)n(-c3cc(C)cc(C)c3)c(N3CCOCC3)nc2c1 |
| 927 s | CCn1c(=O)c(N2CCN(C(=O)NCc3ccc(C)cc3)CC2)nc2ccccc21 |
| 1010 s | COC(=O)c1cccc(-c2nc(-c3nnn(Cc4ccccc4)c3C)no2)c1 |
| 607 s | Cc1[nH]c(C(=O)N2CCCC(C(=O)NCCN3CCOCC3)C2)c(C)c1C(=O)OC(C)C (centres undefined) |
| 763 s | CCc1noc(NC(C)=O)c1-c1ccc(OC)c(S(=O)(=O)Nc2ccccc2F)c1 |
| 871 s | CCc1ccc(CNC(=O)C2CCCN(c3ncnc4c3oc3ccccc34)C2)cc1 (centres undefined) |
| 576 s | Cc1cc(N2CCN(C)CC2)nc2ccc(NC(=O)c3cccc([N+](=O)[O-])c3)cc12 |
| 584 s | CN(C)C1(CC2CC2)CCN(C(=O)c2cccs2)CC1 |
| 711 s | CC1CCN(c2nccnc2Oc2ccc(C(=O)N3CCN(c4ccccn4)CC3)cc2)CC1 |
| 817 s | COc1cc(NC(=O)NC(C)C(=O)N2CCc3ccccc32)cc(OC)c1 (centres undefined) |
| 667 s | CCN(CC)CCNc1ccc(-c2nc(-c3ccc(F)cc3)no2)nn1 |
